# Measurements from US11332459B2 (TEIJIN PHARMA LIMITED, priority 2017, dated 2022).
# pIC50: −log10 of the molar value. Structures can show the parent of a compound that is named as a salt.
# Molecular target: T1, human TRPC6 (Homo sapiens, UniProt Q9Y210)
# T1 construct: expressed in transfected cells
# T1 sequence (Q9Y210 1-931): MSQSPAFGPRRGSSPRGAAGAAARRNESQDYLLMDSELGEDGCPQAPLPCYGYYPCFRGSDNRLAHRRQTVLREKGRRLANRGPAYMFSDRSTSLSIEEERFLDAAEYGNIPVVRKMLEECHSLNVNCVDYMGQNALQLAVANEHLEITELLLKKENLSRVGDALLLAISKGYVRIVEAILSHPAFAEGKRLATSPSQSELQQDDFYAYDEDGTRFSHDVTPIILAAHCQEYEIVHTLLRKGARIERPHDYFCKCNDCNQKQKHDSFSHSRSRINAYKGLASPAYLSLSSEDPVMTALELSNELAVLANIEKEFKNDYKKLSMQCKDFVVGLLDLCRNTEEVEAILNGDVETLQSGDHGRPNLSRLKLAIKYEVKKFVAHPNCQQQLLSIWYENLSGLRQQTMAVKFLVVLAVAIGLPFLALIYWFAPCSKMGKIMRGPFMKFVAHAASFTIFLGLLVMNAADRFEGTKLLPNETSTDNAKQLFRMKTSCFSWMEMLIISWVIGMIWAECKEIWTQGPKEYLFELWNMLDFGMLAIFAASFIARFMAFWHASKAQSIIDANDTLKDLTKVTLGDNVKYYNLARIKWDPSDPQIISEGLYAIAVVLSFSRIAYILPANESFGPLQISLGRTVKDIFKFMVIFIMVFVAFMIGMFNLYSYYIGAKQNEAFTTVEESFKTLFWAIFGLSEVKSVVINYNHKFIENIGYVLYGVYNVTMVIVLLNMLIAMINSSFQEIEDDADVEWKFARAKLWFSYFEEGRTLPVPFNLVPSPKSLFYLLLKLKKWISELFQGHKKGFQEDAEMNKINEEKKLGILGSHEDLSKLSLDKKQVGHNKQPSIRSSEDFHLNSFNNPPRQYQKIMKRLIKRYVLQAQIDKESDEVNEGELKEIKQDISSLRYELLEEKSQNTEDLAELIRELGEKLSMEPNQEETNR
# Test: TRPC6 calcium flux assay (FLIPR, OAG-stimulated calcium influx)
# Assay type: cell-based
# Conditions: HEK293 cells stably transfected with human TRPC6, read-out: hTRPC6 Potency
# Description: Biological Example 1 TRPC6 Calcium Flux Assay
# Potency of TRPC6 (Transient receptor potential channel family C6) inhibitors were measured by their inhibition of Calcium influx trigged by […] (1-Oleoyl-2-acetyl-sn-glycerol, Millipore Sigma, O6754) stimulation on HEK293 cells stablely transfected with human TRPC6 using a FLIPR tetra system. Cells were grown in a humidified environment at 37° C. under 5% CO2 using the growth medium with the following selective reagents (Dulbecco's Modified Eagle's Medium (DMEM) high glucose, 10% Fetal Bovine Serum, 1×PSGlu (penicillin-streptomycin glutamine), 1×NEAA (Non-essential amino acid), 1× Na Pyruvate and 200 ug/ml Hygromycin). For general passage, cells were grown to 70-90% confluency; the media was removed, and the cells were gently washed 2 times with calcium and magnesium free PBS (phosphate-buffered saline). Trypsin (3 mL) was applied for 5 minutes at 37° C. The cells were dislodged by rapping flask against base of a hand and 7 mL of growth medium was added to deactivate trypsin and re-suspend cells. The usual splitting schedule was 1:5 every 2-3 days.
# Cells were plated the day before the assay, plating cell density is 1.0-1.5×10^4/25 μl/well in poly-D-lysine (PDL) coated 384-well plates using either multichannel pipettes or multidrop. These cells were first incubated with fluorescence dye at room temperature for 90-120 minutes after they were grown on PDL-coated 384-well black plates overnight (Dye loading buffer 10 ml example: 9 mL assay buffer, 1 mL, 10×PBX signal enhancer, 10 μL Calcium indicator). The cells were incubated with a dose of compounds for 25 minutes before being stimulated with TRPC6 agonist OAG. The OAG solution was prepared by adding OAG into assay buffer (Ca ringer solution base: 10 mM HEPES (4-(2-hydroxyethyl)-1-piperazine-ethanesulfonic acid), 4 mM MgCl2, 120 mM NaCl, 5 mM KCl, pH=7.2 @25° C.)+0.1% BSA+2 mM CaCl2) to the concentration of 0.2 mM/2% DMSO, which achieves a final on cell concentration of 50 uM/0.5% DMSO. 12.5 uL OAG mixture was added and the activation of the TRPC6 channel was measured by the change of intracellular Calcium levels on FLIPR terra system.
# Data was acquired by measuring the fluorescent peak signal subtracted from the background during the 180 second imaging frame. Each data point is further normalized to 100% of OAG triggered signal vs. buffer. Table 16 provides the IC50 for each compound, which data is obtained by plotting peak signal over the compound dose.
row,Compound,pIC50
1,"C[C@@H](c1ccc(C#N)cc1)n1c(N2CC[C@@H](F)[C@H](N)C2)nc2ccccc21 [Example 320, 4-((S)-1-(2-((3R,4R)-3-amino-4-fluoropiperidin-1-yl)-1H-benzo[d]imidazol-1-yl)ethyl)benzonitrile hydrochloride]",7.92
2,"N#Cc1ccc(Cn2c(N3CC[C@@H](F)[C@H](N)C3)nc3cc(F)c(C(F)(F)F)cc32)nc1 [Example 22, 6-((2-((3R,4R)-3-amino-4-fluoropiperidin-1-yl)-5-fluoro-6-(trifluoromethyl)-1H-benzo[d]imidazol-1-yl)methyl)nicotinonitrile]",8.79
3,"CN(CC(F)(F)F)C(=O)Cn1c(N2CC[C@H](F)[C@H](N)C2)nc2ccc(F)cc21 (single isomer, unassigned) [Example 466]",6.99
4,"N#Cc1ccc(Cn2c(N3CC[C@](F)(CN)C3)nc3ccccc32)cc1 [Example 175, (S)-4-((2-(3-(aminomethyl)-3-fluoropyrrolidin-1-yl)-1H-benzo[d]imidazol-1-yl)methyl)benzonitrile 2,2,2-trifluoroacetate]",5.77
5,"CC(C)C1CCN1C(=O)Cn1c(N2CC[C@@H](F)[C@H](N)C2)nc2cc(F)c(F)cc21 (stereo partly drawn) [Example 625, 2-(2-((3R,4R)-3-amino-4-fluoropiperidin-1-yl)-5,6-difluoro-1H-benzo[d]imidazol-1-yl)-1-(2-isopropylazetidin-1-yl)ethanone]",6.98
6,"CN(CC1CCOC1)C(=O)Cn1c(N2CC[C@@H](F)[C@H](N)C2)nc2cc(F)c(F)cc21 (mixture of isomers) [Example 633, 2-(2-((3R,4R)-3-amino-4-fluoropiperidin-1-yl)-5,6-difluoro-1H-benzo[d]imidazol-1-yl)-N-methyl-N-((tetrahydrofuran-3-yl)methyl)acetamide]",6.62
7,"CN(C)C(=O)Cn1c(N2CC[C@@H](F)[C@H](N)C2)nc2ccc(Cl)cc21 [Example 502, 2-(2-((3R,4R)-3-amino-4-fluoropiperidin-1-yl)-6-chloro-1H-benzo[d]imidazol-1-yl)-N,N-dimethylacetamide]",8.04
8,"CN(C(=O)Cn1c(N2CC[C@@H](F)[C@H](N)C2)nc2cc(F)c(F)cc21)c1nccs1 [Example 501, 2-(2-((3R,4R)-3-amino-4-fluoropiperidin-1-yl)-5,6-difluoro-1H-benzo[d]imidazol-1-yl)-N-methyl-N-(thiazol-2-yl)acetamide]",8.21
9,"C[C@H](c1ccc(C#N)cn1)n1c(N2CC[C@@H](F)[C@H](N)C2)nc2cc(C#N)ccc21 [Example 224, 2-((3R,4R)-3-amino-4-fluoropiperidin-1-yl)-1-((R)-1-(5-cyanopyridin-2-yl)ethyl)-1H-benzo[d]imidazole-5-carbonitrile hydrochloride]",6.80
10,"N[C@@H]1CN(c2nc3ccccc3n2Cc2ncc(F)cn2)CC[C@H]1F [Example 188, (3R,4R)-4-fluoro-1-(1-((5-fluoropyrimidin-2-yl)methyl)-1H-benzo[d]imidazol-2-yl)piperidin-3-amine]",7.89
11,"C[C@@H](c1ccc(C#N)cn1)n1c(N2CC[C@H]3OCCN[C@@H]3C2)nc2c(F)cc(F)cc21 [Example 270, 6-((1S)-1-(4,6-difluoro-2-((4aR,8aR)-hexahydro-2H-pyrido[4,3-b][1,4]oxazin-6(5H)-yl)-1H-benzimidazol-1-yl)ethyl)-3-pyridinecarbonitrile]",7.29
12,"N#Cc1cc(F)cc2nc(N3CCC(F)(F)[C@H](N)C3)n(Cc3ncc(Cl)cn3)c12 [Example 150, (R)-2-(3-amino-4,4-difluoropiperidin-1-yl)-1-((5-chloropyrimidin-2-yl)methyl)-5-fluoro-1H-benzo[d]imidazole-7-carbonitrile]",8.04
13,"CN(C)C(=O)Cn1c(N2CC[C@@H](F)[C@H](N)C2)nc2cc(F)c(F)cc21 [Example 278, 2-(2-((3R,4R)-3-amino-4-fluoro-1-piperidinyl)-5,6-difluoro-1H-benzimidazol-1-yl)-N,N-dimethylacetamide]",6.13
14,"N[C@@H]1CCCN(c2nc3ccccc3n2Cc2ccc(-n3cncn3)cc2)C1 [Example 371, (R)-1-(1-(4-(1H-1,2,4-triazol-1-yl)benzyl)-1H-benzo[d]imidazol-2-yl)piperidin-3-amine]",5.17
15,"C[C@H](c1ccc(OC(F)(F)F)cc1)n1c(N2CC[C@@H](F)[C@H](N)C2)nc2cc(F)c(F)cc21 [Example 337, (3R,4R)-1-(5,6-difluoro-1-((1R)-1-(4-(trifluoromethoxy)phenyl)ethyl)-1H-benzimidazol-2-yl)-4-fluoro-3-piperidinamine]",< 5.43
16,"C[C@H](NC(=O)Cn1c(N2CC[C@@H](F)[C@H](N)C2)nc2ccc(F)cc21)c1ccccn1 [Example 666, 2-(2-((3R,4R)-3-amino-4-fluoropiperidin-1-yl)-6-fluoro-1H-benzo[d]imidazol-1-yl)-N-((S)-1-(pyridin-2-yl)ethyl)acetamide]",6.16
17,"N[C@@H]1CN(c2nc3cc(F)c(F)cc3n2CC(=O)N2CCN(c3cnccn3)CC2)CC[C@H]1F [Example 511, 2-(2-((3R,4R)-3-amino-4-fluoropiperidin-1-yl)-5,6-difluoro-1H-benzo[d]imidazol-1-yl)-1-(4-(pyrazin-2-yl)piperazin-1-yl)ethan-1-one]",6.80
18,"N[C@@H]1CN(c2nc3ccc(F)cc3n2Cc2ncc(Cl)cn2)CC[C@@H]1F [Example 39, (3R,4S)-1-(1-((5-chloropyrimidin-2-yl)methyl)-6-fluoro-1H-benzo[d]imidazol-2-yl)-4-fluoropiperidin-3-amine]",9.06
19,"N#Cc1ccc(Cn2c(N3CC[C@H](F)[C@H](N)C3)nc3cc(C(F)(F)F)ccc32)nc1 [Example 107, 6-((2-((3R,4S)-3-amino-4-fluoro-1-piperidinyl)-5-(trifluoromethyl)-1H-benzimidazol-1-yl)methyl)-3-pyridinecarbonitrile]",8.10
20,"C[C@H]1CCN(c2nc3ccccc3n2Cc2ccc(C#N)cc2)C[C@H]1N [Example 180, 4-((2-((3S,4S)-3-amino-4-methylpiperidin-1-yl)-1H-benzo[d]imidazol-1-yl)methyl)benzonitrile 2,2,2-trifluoroacetate]",7.83
21,"COc1ccc2c(c1)nc(N1CC[C@@H](F)[C@H](N)C1)n2Cc1ccc(C#N)cn1 [Example 145, 6-((2-((3R,4R)-3-amino-4-fluoropiperidin-1-yl)-5-methoxy-1H-benzo[d]imidazol-1-yl)methyl)nicotinonitrile hydrochloride]",7.85
22,"N#Cc1ccc(Cn2c(N3CCC[C@H](N)C3)nc3c(Cl)cccc32)cc1 [Example 418, (S)-4-((2-(3-aminopiperidin-1-yl)-4-chloro-1H-benzo[d]imidazol-1-yl)methyl)benzonitrile 2,2,2-trifluoroacetate]",9.23
23,"N#Cc1ccc(Cn2c(N3C[C@@H]4NCCO[C@@H]4C3)nc3ccccc32)nc1 [Example 99, 6-((2-((4aS,7aR)-hexahydropyrrolo[3,4-b][1,4]oxazin-6(2H)-yl)-1H-benzo[d]imidazol-1-yl)methyl)nicotinonitrile hydrochloride]",< 5.43
